Results as given in ChEMBL document CHEMBL5518180, “Design, synthesis, and biological evaluation of harmine derivatives as topoisomerase I inhibitors for cancer treatment” (Eur J Med Chem, 2024).
Active and inactive are the calls of the source. No cut-off for these calls is given here.

Assays:
[1] = system: MCF7; assay: Antimigratory activity against human MCF7 cells assessed as inhibition of recovery of cells from scratch wounds incubated for 24 hrs by inverted fluorescence microscopic analysis; format: functional, cell-based; settings: dose 0.125-0.5 µM
[2] = system: MCF7; assay: Inhibition of colony formation in human MCF7 cells at 0.075 uM incubated for 2 weeks by crystal violet staining based analysis; format: functional, cell-based
[3] = system: MCF7; assay: Antimigratory activity against human MCF7 cells assessed as wound healing rate at 0.125 uM incubated for 24 hrs by inverted fluorescence microscopic analysis (reference value: 42.5 %); format: functional
[4] = system: MCF7; assay: Induction of apoptosis in human MCF7 cells assessed as necrotic cells at 0.1 uM incubated for 24 hrs by Annexin V-FITC/Propidium Iodide staining based flow cytometry analysis (reference value: 0.082 %); format: functional
[5] = Toxicity in BALB/c mouse transplanted with […] cells assessed as spleen damage at 5 to 20 mg/kg, ip administered for 14 days by hematoxylin and eosin staining based analysis; format: organism-based; settings: in vivo, 336 h, dose 5-20 mg/kg, time 14 day
[6] = system: MCF7; assay: Induction of apoptosis in human MCF7 cells assessed as early apoptotic cells at 2 uM incubated for 24 hrs by Annexin V-FITC/Propidium Iodide staining based flow cytometry analysis (reference value: 2.54 %); format: functional
[7] = Toxicity in BALB/c mouse transplanted with […] cells assessed as liver damage at 5 to 20 mg/kg, ip administered for 14 days by hematoxylin and eosin staining based analysis; format: organism-based; settings: in vivo, 336 h, dose 5-20 mg/kg, time 14 day
[8] = system: MCF7; assay: Induction of DNA double-strand breaks in human MCF7 cells assessed as increase in gamma-H2AX protein expression incubated for 48 hrs by Western blotting analysis; format: functional, cell-based; settings: dose 0.25-1 µM
[9] = system: MCF7; assay: Induction of apoptosis in human MCF7 cells assessed as necrotic cells at 2 uM incubated for 24 hrs by Annexin V-FITC/Propidium Iodide staining based flow cytometry analysis (reference value: 0.082 %); format: functional
[10] = system: MCF7; assay: Antimigratory activity against human MCF7 cells assessed as reduction in penetration of cells in transwell membrane at 0.125 to 0.5 uM incubated for 24 hrs by crystal violet staining based inverted fluorescence microscopic analysis; format: functional, cell-based; settings: dose 0.125-0.5 µM
[11] = system: MCF7; assay: Induction of apoptosis in human MCF7 cells assessed as viable cells at 2 uM incubated for 24 hrs by Annexin V-FITC/Propidium Iodide staining based flow cytometry analysis (reference value: 91.8 %); format: functional; settings: read-out: Activity
[12] = system: MCF7; assay: Induction of apoptosis in human MCF7 cells assessed as viable cells at 0.5 uM incubated for 24 hrs by Annexin V-FITC/Propidium Iodide staining based flow cytometry analysis (reference value: 91.8 %); format: functional; settings: read-out: Activity
[13] = system: MCF7; assay: Induction of DNA damage in human MCF7 cells at 1 uM pre-incubated for 24 hrs by Comet assay; format: functional, cell-based
[14] = system: MCF7; assay: Induction of apoptosis in human MCF7 cells assessed as increase in phosphorylated Bim protein expression incubated for 24 hrs by Western blotting analysis; format: functional, cell-based; settings: dose 0.1-2 µM
[15] = system: MCF7; assay: Induction of apoptosis in human MCF7 cells assessed as late apoptotic cells at 0.1 uM incubated for 24 hrs by Annexin V-FITC/Propidium Iodide staining based flow cytometry analysis (reference value: 5.58 %); format: functional
[16] = system: MCF7; assay: Induction of apoptosis in human MCF7 cells assessed as late apoptotic cells at 2 uM incubated for 24 hrs by Annexin V-FITC/Propidium Iodide staining based flow cytometry analysis (reference value: 5.58 %); format: functional
[17] = system: MCF7; assay: Induction of apoptosis in human MCF7 cells assessed as late apoptotic cells at 0.5 uM incubated for 24 hrs by Annexin V-FITC/Propidium Iodide staining based flow cytometry analysis (reference value: 5.58 %); format: functional
[18] = system: HT-29; assay: Antiproliferative activity against human HT-29 cells assessed as inhibition of cell growth incubated for 48 hrs by MTT assay; format: functional, cell-based; settings: HT-29, 48 h
[19] = target: T1, DNA topoisomerase 1 (Homo sapiens) (UniProt P11387); assay: Inhibition of Topoisomerase I (unknown origin) assessed as inhibition of relaxation of supercoiled DNA incubated for 90 mins in presence of pBR322 by electrophoretic analysis; settings: dose 25-100 µM
T1 sequence (whole entry): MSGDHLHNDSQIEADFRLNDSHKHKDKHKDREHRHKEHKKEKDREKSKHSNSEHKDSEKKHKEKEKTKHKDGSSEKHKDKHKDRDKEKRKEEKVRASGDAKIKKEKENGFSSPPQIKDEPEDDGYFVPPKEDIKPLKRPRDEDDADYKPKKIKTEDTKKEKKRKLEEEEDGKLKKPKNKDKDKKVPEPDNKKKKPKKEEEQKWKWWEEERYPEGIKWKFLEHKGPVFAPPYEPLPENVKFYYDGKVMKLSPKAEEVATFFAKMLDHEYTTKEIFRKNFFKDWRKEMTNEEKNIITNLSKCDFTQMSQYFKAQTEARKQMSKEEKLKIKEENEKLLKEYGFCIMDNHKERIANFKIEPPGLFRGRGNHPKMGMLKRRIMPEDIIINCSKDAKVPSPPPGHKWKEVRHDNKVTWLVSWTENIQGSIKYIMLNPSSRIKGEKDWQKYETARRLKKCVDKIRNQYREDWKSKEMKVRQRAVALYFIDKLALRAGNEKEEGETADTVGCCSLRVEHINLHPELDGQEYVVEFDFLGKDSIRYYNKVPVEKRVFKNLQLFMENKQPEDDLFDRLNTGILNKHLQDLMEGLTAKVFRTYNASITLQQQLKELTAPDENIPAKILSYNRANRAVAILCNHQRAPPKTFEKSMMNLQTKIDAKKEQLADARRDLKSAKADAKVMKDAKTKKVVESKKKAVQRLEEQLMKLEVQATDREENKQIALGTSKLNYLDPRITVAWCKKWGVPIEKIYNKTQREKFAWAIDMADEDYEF

[20] = Cytotoxicity against human L02 cells assessed as inhibition of cell growth incubated for 48 hrs by MTT assay; format: toxicity, cell-based
[21] = system: 4T1; assay: Antitumor activity against mouse 4T1 cells transplanted in BALB/c mouse assessed as inhibition of tumor volume at 10 mg/kg, ip administered for 14 days; format: functional, organism-based; settings: time 14.0 day
[22] = Toxicity in BALB/c mouse transplanted with […] cells assessed as heart damage at 5 to 20 mg/kg, ip administered for 14 days by hematoxylin and eosin staining based analysis; format: organism-based; settings: in vivo, 336 h, dose 5-20 mg/kg, time 14 day
[23] = system: MCF7; assay: Antimigratory activity against human MCF7 cells assessed as decrease in MMP-2 expression incubated for 24 hrs by Western blotting analysis; format: functional, cell-based; settings: dose 125-500 nM
[24] = system: MCF7; assay: Antiproliferative activity against human MCF7 cells assessed as inhibition of cell growth incubated for 48 hrs by MTT assay; format: functional, cell-based; settings: MCF7, 48 h
[25] = system: MCF7; assay: Induction of DNA damage in human MCF7 cells at 5 to 10 uM pre-incubated for 24 hrs by Comet assay; format: functional, cell-based; settings: dose 5-10 µM
[26] = system: MCF7; assay: Antimigratory activity against human MCF7 cells assessed as wound healing rate at 0.5 uM incubated for 24 hrs by inverted fluorescence microscopic analysis (reference value: 42.5 %); format: functional
[27] = system: MCF7; assay: Induction of apoptosis in human MCF7 cells assessed as increase in cleaved-PARP protein expression incubated for 24 hrs by Western blotting analysis; format: functional, cell-based; settings: dose 0.1-2 µM
[28] = system: PC-3; assay: Antiproliferative activity against human PC-3 cells assessed as inhibition of cell growth incubated for 48 hrs by MTT assay; format: functional, cell-based; settings: PC-3, 48 h

IC50 [18]: 570 nM
inhibition [19]: Dose-Dependent Effect
IC50 [24]: 340 nM
IC50 [28]: 1170 nM
SMILES: O=C(/C=C/c1ccc(Cl)c([N+](=O)[O-])c1)c1nccc2c1[nH]c1ccccc12
Activity [1]: Dose-Dependent Effect
inhibition [2]: Active
Activity [3]: 15.3%
Activity [4]: 0.12%
Activity [5]: Non-Toxic
Activity [6]: 7.59%
Activity [7]: Non-Toxic
Activity [8]: Dose-Dependent Effect
Activity [9]: 0.93%
Activity [10]: Active
viability at 2 µM [11]: 60.6%
viability at 0.5 µM [12]: 71%
Activity [13]: inactive
Activity [14]: Dose-Dependent Effect
Activity [15]: 7.06%
Activity [16]: 30.8%
Activity [17]: 8.65%
IC50 at 48 h [20]: 9610 nM
Activity [21]: Active
Activity [22]: Non-Toxic
Activity [23]: Dose-Dependent Effect
Activity [25]: Active
Activity [26]: 1.4%
Activity [27]: Dose-Dependent Effect
